This note sets out measurements from ChEMBL document CHEMBL1141006, “2-Arylimino-5,6-dihydro-4H-1,3-thiazines as a new class of cannabinoid receptor agonists. Part 3: Synthesis and activity of isosteric analogs” (Bioorg Med Chem Lett, 2008).

For data set [1], the system named is Mus musculus. As to the kind of experiment: Analgesic activity against formalin-induced inflammatory pain in po dosed ICR mouse assessed as paw licking for 10 to 30 mins. Format: functional.
Data set [2] is described as follows: AUC in rat at 3 mg/kg, po. Format: ADME, organism-based. Also noted: dose 3 mg/kg, route oral. To be noted: plasma.
Data set [3] in a line: Oral bioavailability in rat at 3 mg/kg. Format: ADME, organism-based. The conditions noted are these: in vivo.
For data set [4], the species on record is Mus musculus. As to the kind of experiment: Ratio of ED50 for analgesic activity in ddY mouse by ring-catalepsy test to ED50 for analgesic activity against formalin-induced inflammatory pain in ICR mouse. Format: functional.
Data set [5] has as its system Mus musculus. The data set can be described thus: Analgesic activity against po dosed ddY mouse assessed as time spent motionless on the ring for 5 mins by ring catalepsy test. Format: functional.
Data set [6] has as its system Mus musculus. The data set can be described thus: Analgesic activity against formalin-induced acute pain in po dosed ICR mouse assessed as paw licking for 0 to 5 mins. Format: functional.
Data set [7] is described as follows: Cmax in rat at 2 mg/kg, iv and 3 mg/kg, po. The conditions noted are these: in vivo. Type of data set: ADME, organism-based.
Data set [8] deals with T1, Cannabinoid receptor 1 (Homo sapiens, UniProt P21554). As to the kind of experiment: Binding affinity to human CB1 receptor expressed in CHO cells assessed as inhibition of cAMP accumulation. Type of data set: functional, cell-based. On the technique in general: Cyclic AMP is a second messenger, typically raised through Gs and lowered through Gi signalling.
T1 sequence (P21554 whole entry): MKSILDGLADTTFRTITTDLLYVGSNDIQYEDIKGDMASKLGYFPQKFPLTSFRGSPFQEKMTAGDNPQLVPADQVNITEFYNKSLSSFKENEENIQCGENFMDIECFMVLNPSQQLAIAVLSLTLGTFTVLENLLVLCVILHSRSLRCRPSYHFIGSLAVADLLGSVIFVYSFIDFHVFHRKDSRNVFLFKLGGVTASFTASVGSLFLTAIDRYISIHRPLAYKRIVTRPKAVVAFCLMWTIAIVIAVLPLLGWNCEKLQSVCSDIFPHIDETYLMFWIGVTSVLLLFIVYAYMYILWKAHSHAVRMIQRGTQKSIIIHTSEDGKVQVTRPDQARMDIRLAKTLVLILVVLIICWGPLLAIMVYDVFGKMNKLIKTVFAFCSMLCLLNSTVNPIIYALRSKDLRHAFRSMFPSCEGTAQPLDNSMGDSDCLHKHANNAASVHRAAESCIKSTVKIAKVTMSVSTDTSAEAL
The target of a further data set is Cannabinoid receptor 2 (Homo sapiens, UniProt P34972). The data set can be described thus: Binding affinity to human CB2 receptor.
Chain of Cannabinoid receptor 2 (P34972 whole entry): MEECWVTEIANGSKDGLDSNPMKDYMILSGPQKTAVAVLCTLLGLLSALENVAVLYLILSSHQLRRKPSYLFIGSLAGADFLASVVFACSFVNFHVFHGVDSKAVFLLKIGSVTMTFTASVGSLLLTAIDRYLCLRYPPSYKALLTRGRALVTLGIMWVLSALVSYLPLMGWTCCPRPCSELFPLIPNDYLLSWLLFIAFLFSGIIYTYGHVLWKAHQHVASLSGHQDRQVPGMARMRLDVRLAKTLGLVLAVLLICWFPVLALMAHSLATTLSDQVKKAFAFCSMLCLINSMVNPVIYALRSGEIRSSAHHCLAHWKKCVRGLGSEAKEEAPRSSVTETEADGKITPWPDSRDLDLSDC
The target in data set [9] is T1, Cannabinoid receptor 1. As to the kind of experiment: Binding affinity to human CB1 receptor.
Data set [10] can be described thus: Half life in rat at 2 mg/kg, iv and 3 mg/kg, po. Format: ADME, organism-based. The conditions noted are these: in vivo.
The nature of data set [11]: Total clearance in rat at 2 mg/kg, iv and 3 mg/kg, po. Format: ADME, organism-based. To be noted: in vivo.
The target in data set [12] is Cannabinoid receptor 1 (Mus musculus, UniProt P47746). As to the kind of experiment: Binding affinity to mouse CB1 receptor.
Chain of Cannabinoid receptor 1 (Mus musculus, UniProt P47746) (P47746 whole entry): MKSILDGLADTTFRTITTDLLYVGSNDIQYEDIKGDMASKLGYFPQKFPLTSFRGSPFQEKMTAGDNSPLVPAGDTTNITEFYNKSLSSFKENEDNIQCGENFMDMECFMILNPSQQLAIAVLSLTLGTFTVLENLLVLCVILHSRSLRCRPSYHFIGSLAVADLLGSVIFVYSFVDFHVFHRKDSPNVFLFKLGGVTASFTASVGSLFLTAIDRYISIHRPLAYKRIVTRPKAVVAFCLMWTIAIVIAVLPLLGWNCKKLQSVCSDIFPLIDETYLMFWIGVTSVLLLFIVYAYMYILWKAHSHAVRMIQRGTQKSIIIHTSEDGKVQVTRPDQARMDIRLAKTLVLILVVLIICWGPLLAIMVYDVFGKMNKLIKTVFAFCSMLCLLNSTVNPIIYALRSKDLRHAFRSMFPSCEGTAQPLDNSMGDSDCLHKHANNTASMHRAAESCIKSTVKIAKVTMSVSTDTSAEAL

Take `CSC(=S)N1CC2(CCCCC2)CS/C1=N\c1cccc2ccccc12`: the values for the ED50 in the data set with Mus musculus [1], in the data set with Mus musculus [5] and in the data set with Mus musculus [6] were 1 mg/kg, 19.2 mg/kg and 1.5 mg/kg, respectively. The AUC in data set [2] was determined as 1390 ng·h/mL. The bioavailability in data set [3] came out at 80%. Besides, the “Ratio ED50” value in the data set filed under Mus musculus [4] came to 19.2. Moreover, the Cmax in data set [7] came to 160 ng/mL. In addition, the 50% inhibitory concentration (IC50) at Cannabinoid receptor 1 [8] amounted to 10 nM.

With `CSC(=S)N1CC2(CCCCC2)CO/C1=N\c1cc(C(C)(C)C)on1`, the Ki at Cannabinoid receptor 2 was determined as 4.7 nM; on Cannabinoid receptor 1 [9], 17 nM.

In the case of `COc1ccccc1/N=C1\OCC2(CCCCC2)CN1C(=S)SC`, the Ki is 0.9 nM at Cannabinoid receptor 2 and 59 nM at Cannabinoid receptor 1 [9].

For the compound `CSC(=S)N1CC2(CCCCC2)CO/C1=N\c1cccc2nonc12`, the inhibitory constant (Ki) stood at 6.8 nM on Cannabinoid receptor 2 and 152 nM at Cannabinoid receptor 1 [9].

For the compound `CSC(=O)N1CC2(CCCCC2)CO/C1=N\c1cccc2ccccc12`, the Ki at Cannabinoid receptor 2 is 5.8 nM; at Cannabinoid receptor 1 [9] it was 31 nM.

Take `CSC(=S)N1CC2(CCCCC2)CO/C1=N\c1ccccc1`: the Ki was found to be 11 nM at Cannabinoid receptor 2 and 515 nM at Cannabinoid receptor 1 [9].

For `CSC(=O)N1CC2(CCCCC2)CS/C1=N\c1cccc2ccccc12`, the Ki at Cannabinoid receptor 2 was determined as 1.5 nM; at Cannabinoid receptor 1 [9], 49 nM.

For `CSC(=S)N1CC2(CCCCC2)CO/C1=N\c1cccc2c1CCCC2`, the Ki at Cannabinoid receptor 2 was 1 nM; at Cannabinoid receptor 1 [9] it was 14 nM.

On to `CSC(=S)N1CC2(CCCCC2)CO/C1=N\c1ccc(Cl)c2c1CCCC2`, for which the Ki came out at 5.8 nM on Cannabinoid receptor 2 and 76 nM on Cannabinoid receptor 1 [9].

Consider `CSC(=S)N1CC2(CCCCC2)CO/C1=N\c1cc(C(C)(C)C)no1`, for which the inhibitory constant (Ki) at Cannabinoid receptor 2 came to 1 nM; on Cannabinoid receptor 1 [9] it was 0.9 nM.

Regarding `CSC(=S)N1CC2(CCCCC2)CO/C1=N\c1ccc(N(C)C)c2ccccc12`, the Ki at Cannabinoid receptor 2 was 6.6 nM; at Cannabinoid receptor 1 [9] it was 4.9 nM.

Regarding `CSC(=S)N1CC2(CCCCC2)CO/C1=N\c1ccc(C#N)c2c1CCCC2`, the values for the Ki on Cannabinoid receptor 2 and on Cannabinoid receptor 1 [9] were 1.9 nM and 101 nM, respectively.

Turning to `CSC(=S)N1CC2(CCCCC2)CO/C1=N\c1ccc(F)c2ccccc12`, the Ki on Cannabinoid receptor 2 was found to be 0.8 nM; on Cannabinoid receptor 1 [9] it was 4.9 nM.

Turning to `CSC(=S)N1CC2(CCCCC2)CO/C1=N\c1ccc(Cl)c2ccccc12`, the ED50 in the data set on Mus musculus [1] amounted to 0.64 mg/kg; in the data set with Mus musculus [5], 25.6 mg/kg; in the data set with Mus musculus [6] it was 1.9 mg/kg. The compound further came in with an AUC in [2] of 1210 ng·h/mL. For the same compound, the bioavailability in [3] worked out at 35%. Further, the Ki on Cannabinoid receptor 2 is 0.9 nM; at Cannabinoid receptor 1 [9] it was 3.4 nM; at Cannabinoid receptor 1 [12], 0.7 nM. Moreover, in the data set listed under Mus musculus [4], the “Ratio ED50” value is listed as 40. The half-life in data set [10] is 2.2 h. The compound further had a clearance in data set [11] of 14.7 mL/min/kg. In [7], this compound displayed a Cmax of 280 ng/mL. In addition, the half-maximal inhibitory concentration (IC50) at Cannabinoid receptor 1 [8] is 8 nM.

For the compound `CSC(=S)N1CC2(CCCCC2)CO/C1=N\c1ccc(C#N)c2ccccc12`, the inhibitory constant (Ki) is 1.8 nM at Cannabinoid receptor 2 and 9.2 nM on Cannabinoid receptor 1 [9].

As for `CSC(=S)N1CC2(CCCCC2)CO/C1=N\c1nc(C(C)(C)C)cs1`, the inhibitory constant (Ki) at Cannabinoid receptor 2 and on Cannabinoid receptor 1 [9] was 1 nM each time.

Turning to `CSC(=O)N1CC2(CCCCC2)CN/C1=N\c1cccc2ccccc12`, the Ki on Cannabinoid receptor 2 amounted to 155 nM; at Cannabinoid receptor 1 [9], 624 nM.

As for `CSC(=S)N1CC2(CCCCC2)CO/C1=N\c1cccc2ccccc12`, the figures for the inhibition constant (Ki) at Cannabinoid receptor 2 and at Cannabinoid receptor 1 [9] were 0.9 nM and 9.3 nM, respectively.

Regarding `CCC(CC)(CC)c1cc(/N=C2\OCC3(CCCCC3)CN2C(=S)SC)on1`, the Ki on Cannabinoid receptor 2 and on Cannabinoid receptor 1 [9] was 1 nM in each case.

In the case of `CSC(=S)N1CC2(CCCCC2)CO/C1=N\c1ccc([N+](=O)[O-])c2ccccc12`, the Ki at Cannabinoid receptor 2 was determined as 2.4 nM; at Cannabinoid receptor 1 [9], 14 nM.

Usually ED50 stands for the dose that gives a 50% effect, or the effect in half of the subjects. Broadly, the AUC is concentration integrated over time. For orientation: bioavailability means the share of a dose that reaches the circulation, judged against a reference dose that is usually intravenous. Lower therefore signals poor availability. Broadly, the Cmax is the peak of the concentration-time curve. As a reminder, the IC50 is the midpoint of a concentration-inhibition curve. Broadly, the Ki is a dissociation constant, usually derived from enzyme kinetics or from competition with a known ligand. High values mean weaker binding, low ones tighter binding. For orientation: half-life means the time in which the quantity being followed falls by half. Higher therefore signals slow loss.
